Usually MIC stands for the lowest concentration that inhibits growth of the organism.

Values after ≈ are worked out from the molar mass of the structure shown. Active and inactive are the calls of the source. No cut-off for these calls is given here.

In ChEMBL document CHEMBL3046485, “Photodynamic activities of protoporphyrin IX and its dopamine conjugate against cancer and bacterial cell viability” (2012) one finds Activity and MIC data, which are given here for eight compounds.

Assay [1] deals with SH-SY5Y. Kind of assay: Antiproliferative activity against Homo sapiens (human) SH-SY5Y cells at 5 uM compound photoirradiated for 20 min followed by 24 hr incubation by WST-1 assay. The format is functional, cell-based. A general note: Tetrazolium assays rely on reduction of a dye to a coloured formazan, in cell work by metabolically active cells.
For assay [2], the system named is HeLa. Kind of assay: Cytotoxicity against Homo sapiens (human) HeLa cells compound at 1 to 30 uM after 24 hr by LDH release assay. The format is functional, cell-based.
Assay [3] deals with Pseudomonas aeruginosa. The assay can be described thus: Antibacterial activity against Pseudomonas aeruginosa ATCC 27853 after 24 hr by two-fold serial dilution method. The class given is functional. The conditions noted are these: ATCC 27853, 24 h.
For assay [4], the system named is SH-SY5Y. Kind of assay: Cytotoxicity against Homo sapiens (human) SH-SY5Y cells at 30 uM compound photoirradiated for 20 min followed by 24 hr incubation by LDH release assay. The format is functional, cell-based. (LDH in the medium is a marker of cell lysis.)
The subject of assay [5] is Pseudomonas aeruginosa. The assay can be described thus: Bacteriostatic activity against Pseudomonas aeruginosa ATCC 27853 after 24 hr by two-fold serial dilution method. The class given is functional, organism-based.
Assay [6] relates to HeLa. The assay can be described thus: Cytotoxicity against Homo sapiens (human) HeLa cells at 30 uM compound photoirradiated for 20 min followed by 24 hr incubation by LDH release assay. The format is functional, cell-based.
The test system of assay [7] is U-87MG ATCC. Kind of assay: Cytotoxicity against Homo sapiens (human) U87 cells at 30 uM compound photoirradiated for 20 min followed by 24 hr incubation by LDH release assay. The class given is functional, cell-based.
In assay [8] the test system is HeLa. The assay can be described thus: Antiproliferative activity against Homo sapiens (human) HeLa cells at 5 uM compound photoirradiated for 20 min followed by 24 hr incubation by WST-1 assay. The format is functional, cell-based.
For assay [9], the system named is U-87MG ATCC. The assay can be described thus: Cytotoxicity against Homo sapiens (human) U87 cells compound photoirradiated for 20 min followed by 24 hr incubation by LDH release assay. The format is functional, cell-based.
The subject of assay [10] is Bacillus subtilis. Kind of assay: Antibacterial activity against Bacillus subtilis ATCC 6633 at 16 ug/ml compound photoirradiated for 20 min followed by 24 hr incubation by two-fold serial dilution method. The class given is functional, organism-based.
Assay [11] has as its system U-87MG ATCC. The assay can be described thus: Antiproliferative activity against Homo sapiens (human) U87 cells at 5 uM compound photoirradiated for 20 min followed by 24 hr incubation by WST-1 assay. The format is functional, cell-based.
Assay [12] has as its system Bacillus subtilis. Kind of assay: Antibacterial activity against Bacillus subtilis ATCC 6633 compound photoirradiated for 20 min followed by 24 hr incubation by two-fold serial dilution method. The format is functional. The conditions noted are these: ATCC 6633, light or radiation study.
The subject of assay [13] is U-87MG ATCC. The assay can be described thus: Cytotoxicity against Homo sapiens (human) U87 cells at 1 to 30 uM after 24 hr by LDH release assay. The format is functional, cell-based.
In assay [14] the test system is Escherichia coli. The assay can be described thus: Antibacterial activity against Escherichia coli ATCC 25922 compound photoirradiated for 20 min followed by 24 hr incubation by two-fold serial dilution method. The format is functional. Particulars: ATCC 25922, light or radiation study.
Assay [15] relates to SH-SY5Y. Kind of assay: Antiproliferative activity against Homo sapiens (human) SH-SY5Y cells at 5 uM after 24 hr by WST-1 assay. The format is functional, cell-based.
Assay [16] concerns Escherichia coli. Kind of assay: Antibacterial activity against Escherichia coli ATCC 25922 after 24 hr by two-fold serial dilution method. The format is functional. The conditions noted are these: ATCC 25922, 24 h.
Assay [17] has as its system Pseudomonas aeruginosa. Kind of assay: Antibacterial activity against Pseudomonas aeruginosa ATCC 27853 compound photoirradiated for 20 min followed by 24 hr incubation by two-fold serial dilution method. The class given is functional. The conditions noted are these: ATCC 27853, light or radiation study.
The subject of assay [18] is SH-SY5Y. Kind of assay: Cytotoxicity against Homo sapiens (human) SH-SY5Y cells compound photoirradiated for 20 min followed by 24 hr incubation by LDH release assay. The class given is functional, cell-based.
Assay [19] relates to Bacillus subtilis. The assay can be described thus: Antibacterial activity against Bacillus subtilis ATCC 6633 at 16 ug/ml after 24 hr by two-fold serial dilution method. The format is functional, organism-based.
Assay [20] relates to Bacillus subtilis. The assay can be described thus: Antibacterial activity against Bacillus subtilis ATCC 6633 after 24 hr by two-fold serial dilution method. Particulars: ATCC 6633, 24 h. The class given is functional.
In assay [21] the test system is SH-SY5Y. Kind of assay: Cytotoxicity against Homo sapiens (human) SH-SY5Y cells at 1 to 30 uM after 24 hr by LDH release assay. The format is functional, cell-based.
The subject of assay [22] is HeLa. Kind of assay: Antiproliferative activity against Homo sapiens (human) HeLa cells at 5 uM after 24 hr by WST-1 assay. The format is functional, cell-based.
Assay [23] concerns HeLa. The assay can be described thus: Cytotoxicity against Homo sapiens (human) HeLa cells compound photoirradiated for 20 min followed by 24 hr incubation by LDH release assay. The format is functional, cell-based.
For assay [24], the system named is U-87MG ATCC. The assay can be described thus: Antiproliferative activity against Homo sapiens (human) U87 cells at 5 uM after 24 hr by WST-1 assay. The format is functional, cell-based.

For the compound `C=Cc1c(C)c2cc3[nH]c(cc4nc(cc5nc(cc1[nH]2)C(C)=C5CCC(=O)NCCc1ccc(O)c(O)c1)C(CCC(=O)NCCc1ccc(O)c(O)c1)=C4C)c(C)c3C=C`, the result in the assay with SH-SY5Y [1], with Pseudomonas aeruginosa [5], with HeLa [8], in the assay with U-87MG ATCC [11] and in the assay with Bacillus subtilis [19] was Active. The outcome with HeLa [2], in the assay on SH-SY5Y [4], in the assay on HeLa [6], in the assay on U-87MG ATCC [7], with Bacillus subtilis [10] and with U-87MG ATCC [13] was inactive. The outcome in the assay with SH-SY5Y [15], in the assay with SH-SY5Y [21], in the assay with HeLa [22] and with U-87MG ATCC [24] was inactive. Further, the MIC turned out to be 128 µg/mL (≈ 154 µM) against Pseudomonas aeruginosa [3]; 80 µg/mL (≈ 96 µM) against Bacillus subtilis [12]; 128 µg/mL (≈ 154 µM) with Escherichia coli [14]; 128 µg/mL (≈ 154 µM) against Escherichia coli [16]; 128 µg/mL (≈ 154 µM) in the assay with Pseudomonas aeruginosa [17]; 100 µg/mL (≈ 120 µM) against Bacillus subtilis [20]. Besides, the Activity entry with U-87MG ATCC [9], in the assay on SH-SY5Y [18] and with HeLa [23] was “Dose-dependent effect” throughout.

Regarding `CC1(C)S[C@@H]2[C@H](NC(=O)[C@H](N)c3ccccc3)C(=O)N2[C@H]1C(=O)O` [AMPICILLIN], the MIC in the assay on Pseudomonas aeruginosa [3] was 128 µg/mL (≈ 366 µM); in the assay on Escherichia coli [16], greater than 256 µg/mL; against Bacillus subtilis [20], greater than 256 µg/mL.

For `CC[C@H]1OC(=O)[C@H](C)[C@@H](O[C@H]2C[C@@](C)(OC)[C@@H](O)[C@H](C)O2)[C@H](C)[C@@H](O[C@@H]2O[C@H](C)C[C@H](N(C)C)[C@H]2O)[C@](C)(O)C[C@@H](C)C(=O)[C@H](C)[C@@H](O)[C@]1(C)O` [ERYTHROMYCIN], the MIC was less than 0.125 µg/mL against Pseudomonas aeruginosa [3], 128 µg/mL (≈ 174 µM) in the assay with Escherichia coli [16] and less than 0.125 µg/mL in the assay with Bacillus subtilis [20].

As for `NC[C@H]1O[C@H](O[C@H]2[C@H](O)[C@@H](O[C@H]3O[C@H](CO)[C@@H](O)[C@H](N)[C@H]3O)[C@H](N)C[C@@H]2N)[C@H](O)[C@@H](O)[C@@H]1O` [KANAMYCIN], the MIC in the assay on Pseudomonas aeruginosa [3] was 2 µg/mL (≈ 4.13 µM); against Escherichia coli [16], 16 µg/mL (≈ 33 µM); against Bacillus subtilis [20], greater than 256 µg/mL.

As for `CCn1cc(C(=O)O)c(=O)c2ccc(C)nc21` [NALIDIXIC ACID], the minimum inhibitory concentration (MIC) against Pseudomonas aeruginosa [3] came out at 2 µg/mL (≈ 8.61 µM); in the assay with Escherichia coli [16] it was 16 µg/mL (≈ 68.9 µM); in the assay with Bacillus subtilis [20], 8 µg/mL (≈ 34.4 µM).

`C=CC1=C(C)c2cc3[nH]c(cc4nc(cc5[nH]c(cc1n2)c(C)c5CCC(=O)O)C(CCC(=O)O)=C4C)c(C)c3C=C` [PROTOPORPHYRIN]: the result in the assay on SH-SY5Y [1], in the assay on Pseudomonas aeruginosa [5], in the assay with HeLa [8], with U-87MG ATCC [11] and with Bacillus subtilis [19] was Active. Moreover, the outcome with HeLa [2], in the assay with SH-SY5Y [4], in the assay on HeLa [6], in the assay on U-87MG ATCC [7], in the assay with Bacillus subtilis [10] and in the assay with U-87MG ATCC [13] was inactive. Moreover, the outcome in the assay with SH-SY5Y [15], in the assay with SH-SY5Y [21], in the assay on HeLa [22] and in the assay on U-87MG ATCC [24] was inactive. Moreover, the MIC in the assay on Pseudomonas aeruginosa [3] came to 128 µg/mL (≈ 227 µM); in the assay on Bacillus subtilis [12], 80 µg/mL (≈ 142 µM); against Escherichia coli [14], 128 µg/mL (≈ 227 µM); in the assay on Escherichia coli [16], 128 µg/mL (≈ 227 µM); in the assay on Pseudomonas aeruginosa [17], 128 µg/mL (≈ 227 µM); against Bacillus subtilis [20] it was 100 µg/mL (≈ 178 µM). Further, the Activity entry in the assay with U-87MG ATCC [9], with SH-SY5Y [18] and with HeLa [23] was “Dose-dependent effect” throughout.

In the case of `CN[C@@H]1[C@H](O[C@H]2[C@H](O[C@H]3[C@H](O)[C@@H](O)[C@H](N=C(N)N)[C@@H](O)[C@@H]3N=C(N)N)O[C@@H](C)[C@]2(O)C=O)O[C@@H](CO)[C@H](O)[C@H]1O` [STREPTOMYCIN], the MIC with Pseudomonas aeruginosa [3] was 64 µg/mL (≈ 110 µM); against Escherichia coli [16], greater than 256 µg/mL; in the assay with Bacillus subtilis [20], 16 µg/mL (≈ 27.5 µM).

`CN(C)[C@@H]1C(O)=C(C(N)=O)C(=O)[C@@]2(O)C(O)=C3C(=O)c4c(O)cccc4[C@@](C)(O)[C@H]3C[C@@H]12` [TETRACYCLINE]: the MIC was 1 µg/mL (≈ 2.25 µM) against Pseudomonas aeruginosa [3], 2 µg/mL (≈ 4.5 µM) against Escherichia coli [16] and 8 µg/mL (≈ 18 µM) in the assay on Bacillus subtilis [20].
